# Assay results taken from ChEMBL document CHEMBL4196082, “2-Aryl benzimidazoles: Synthesis, In vitro α-amylase inhibitory activity, and molecular docking study” (Eur J Med Chem, 2018).
# Molecular target: T1, Alpha amylase (Homo sapiens, UniProt P0DUB6)
# T1 sequence (P0DUB6 whole entry): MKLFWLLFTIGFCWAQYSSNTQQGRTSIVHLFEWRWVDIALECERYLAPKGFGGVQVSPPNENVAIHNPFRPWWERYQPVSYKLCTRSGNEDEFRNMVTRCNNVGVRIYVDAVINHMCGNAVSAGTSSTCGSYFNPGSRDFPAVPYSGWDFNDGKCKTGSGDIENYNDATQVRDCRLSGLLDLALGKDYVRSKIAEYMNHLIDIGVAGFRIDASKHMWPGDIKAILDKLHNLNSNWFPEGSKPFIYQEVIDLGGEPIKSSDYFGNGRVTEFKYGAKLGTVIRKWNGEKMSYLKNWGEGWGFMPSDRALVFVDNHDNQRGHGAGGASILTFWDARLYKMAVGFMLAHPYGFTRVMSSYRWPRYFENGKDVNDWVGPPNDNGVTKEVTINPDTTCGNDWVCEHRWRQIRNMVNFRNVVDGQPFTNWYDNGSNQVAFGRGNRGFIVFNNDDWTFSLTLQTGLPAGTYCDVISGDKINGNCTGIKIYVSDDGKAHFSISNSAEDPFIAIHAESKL
# Assay: Inhibition of alpha-amylase (unknown origin) using starch as substrate preincubated for 10 mins followed by substrate addition measured after 10 mins by dinitrosalicylic acid reagent-based assay
row,IC50,Compound
1,2.31 µM,O=[N+]([O-])c1ccc2[nH]c(-c3cc(Br)ccc3F)nc2c1
2,2.84 µM,COc1cccc(-c2nc3cc(C)c(C)cc3[nH]2)c1Cl
3,2.49 µM,COc1cc(-c2nc3cc(F)ccc3[nH]2)cc(OC)c1O
4,2.74 µM,COc1ccc(-c2nc3cc(Cl)ccc3[nH]2)c(F)c1
5,2.74 µM,COc1cccc(-c2nc3ccccc3[nH]2)c1Cl
6,2.48 µM,COc1ccc(Br)c(-c2nc3ccccc3[nH]2)c1O
7,2.62 µM,COc1ccc(Br)cc1-c1nc2cc(Cl)ccc2[nH]1
8,2.29 µM,COc1ccc(Br)c(-c2nc3cc([N+](=O)[O-])ccc3[nH]2)c1O
9,2.17 µM,COc1ccc(Br)c(-c2nc3cc(F)ccc3[nH]2)c1O
10,2.52 µM,COc1cc(-c2nc3cc(Cl)ccc3[nH]2)cc(OC)c1O
11,2.98 µM,Cc1cc2nc(-c3cc(Cl)cc(Cl)c3O)[nH]c2cc1C
12,1.73 µM,COc1cc(-c2nc3cc([N+](=O)[O-])ccc3[nH]2)ccc1OC(C)=O
13,2.6 µM,COc1ccc(Br)cc1-c1nc2cc(F)ccc2[nH]1
14,2.26 µM,COc1ccc(Br)c(-c2nc3cc(C)c(C)cc3[nH]2)c1O
15,1.61 µM,COc1cc(-c2nc3cc(Cl)ccc3[nH]2)cc(I)c1O
16,2.75 µM,COc1ccc(-c2nc3cc([N+](=O)[O-])ccc3[nH]2)c(F)c1
17,1.72 µM,COc1cc(-c2nc3cc([N+](=O)[O-])ccc3[nH]2)cc(I)c1O
18,1.68 µM,COc1cc(-c2nc3cc(F)ccc3[nH]2)ccc1OC(C)=O
19,1.51 µM,COc1cc(Br)c(-c2nc3ccccc3[nH]2)cc1OC
20,2.78 µM,COc1ccc(-c2nc3cc(C)c(C)cc3[nH]2)c(F)c1
21,2.54 µM,Oc1ccc(-c2nc3cc(F)ccc3[nH]2)c(O)c1O
22,1.73 µM,COc1cc(Br)c(-c2nc3cc(Cl)ccc3[nH]2)cc1OC
23,1.68 µM,COc1cc(-c2nc3cc(Cl)ccc3[nH]2)ccc1OC(C)=O

row,IC50,Compound
1,1.77 µM,COc1cc(-c2nc3cc(C)c(C)cc3[nH]2)cc(I)c1O
2,2.98 µM,Oc1ccc(-c2nc3cc(F)ccc3[nH]2)c(O)c1
3,1.87 µM,COc1cc(Br)c(-c2nc3cc([N+](=O)[O-])ccc3[nH]2)cc1OC
4,1.51 µM,COc1ccc(-c2nc3cc(Cl)ccc3[nH]2)c(Cl)c1OC
5,2.86 µM,Oc1c(Br)cc(Cl)cc1-c1nc2cc(Cl)ccc2[nH]1
6,2.62 µM,COc1cccc(-c2nc3cc(F)ccc3[nH]2)c1Cl
7,2.87 µM,Oc1c(Cl)cc(Cl)cc1-c1nc2cc(F)ccc2[nH]1
8,2.78 µM,COc1cccc(-c2nc3cc([N+](=O)[O-])ccc3[nH]2)c1Cl
9,2.86 µM,Oc1c(Br)cc(Cl)cc1-c1nc2cc(F)ccc2[nH]1
10,2.85 µM,Oc1c(Br)cc(Cl)cc1-c1nc2ccccc2[nH]1
11,1.48 µM,COc1cc(Br)c(-c2nc3cc(C)c(C)cc3[nH]2)cc1OC
12,2.92 µM,Cc1cc2nc(-c3cc(Cl)cc(Br)c3O)[nH]c2cc1C
13,2.78 µM,COc1cccc(-c2nc3cc(Cl)ccc3[nH]2)c1Cl
14,2.87 µM,O=[N+]([O-])c1ccc2[nH]c(-c3cc(Cl)cc(Br)c3O)nc2c1
15,1.62 µM,COc1cc(-c2nc3cc(Cl)ccc3[nH]2)cc(OC)c1Br
16,1.57 µM,COc1cc(Br)c(-c2nc3cc(F)ccc3[nH]2)cc1OC
17,2.21 µM,COc1ccc(Br)c(-c2nc3cc(Cl)ccc3[nH]2)c1O
18,2.56 µM,COc1ccc(-c2nc3cc(F)ccc3[nH]2)c(Cl)c1OC
19,1.59 µM,COc1ccc(-c2nc3cc(F)ccc3[nH]2)c(F)c1
20,2.99 µM,Cc1cc2nc(-c3cc(O)ccc3O)[nH]c2cc1C
21,2.3 µM,COc1ccc(-c2nc3cc(C)c(C)cc3[nH]2)c(OC)c1OC
22,1.59 µM,COc1cc(-c2nc3cc(C)c(C)cc3[nH]2)cc(OC)c1Br
